The values that follow come from the RepoRT retention time repository (doi:10.1021/acs.analchem.2c02893).

This data set is described as follows: RP, Thermo Scientific Acclaim RSLC 120 C18, 100 × 2.1 mm, 2.2 µm, 30 °C, 0.2 mL/min, estimated dead time 1.1 min; A: 90% water + 10% methanol + 0.01% formic acid + 5 mM ammonium formate, pH 3.61; B: methanol + 0.01% formic acid + 5 mM ammonium formate, pH 3.61; gradient (min/%B) 0/1 1/1 2/39 13/99.9 15/99.9 15.1/1 20.1/1. To be noted: stereoisomer not certain.
As for `Cc1cc(C2CC2)nc(Nc2ccccc2)n1` [Cyprodinil], the LC retention time is 11 min. Under `CN1CCC(=C2c3ccccc3C=Cc3ccccc32)CC1` [Cyproheptadine] stands 7.89 min. Under `CC(=O)C1(O)CCC2C3C=C(Cl)C4=CC(=O)C5CC5C4(C)C3CCC21C` (stereo unspecified) [Cyproterone] stands 10.1 min; under `Nc1ccn(C2OC(CO)C(O)C2O)c(=O)n1` (stereo unspecified) [Cytarabin], 1.39 min. Regarding `COP(=S)(OC)Oc1ccc(S(N)(=O)=O)cc1` [Cythioate], the LC retention time is 6.19 min. With `CC(=O)OC1C(C)OC(n2cc(F)c(N)nc2=O)C1OC(C)=O` (stereo unspecified) [Cytidine-2' 3'-di-O-acetyl-5'-deoxy-5-fluoro], the LC retention time is 5.06 min.

With `Nc1[nH]c(=O)ncc1F` [Cytosine-5-Fluoro (broad peak)], the LC retention time is 1.43 min. As for `CNCCCC(C#N)(c1ccc(OC)c(OC)c1)C(C)C` (stereo unspecified) [D617 (met. of verapamil)], the figure is 6.14 min; as for `CCN(CC)C(=O)c1cccc(C)c1` [DEET (Diethyltoluamide)], 8.2 min; as for `CCN(CC)CCc1c[nH]c2ccccc12` [DET], 4.34 min.

With `CC(C)N(CCc1c[nH]c2cccc(O)c12)C(C)C` [DIPT- 4-OH], the LC retention time is 4.34 min. Under `COc1ccc(CC(C)N)cc1OC` (stereo unspecified) [DMA (3-4-)] stands 3.94 min; under `CCC(C)CC(C)N` (stereo unspecified) [DMAA (Methylhexanamine)], 4.68 min. As for `CNC(C)C(=O)c1ccc(C)c(C)c1` (stereo unspecified) [DMMC (3-4-)], the LC retention time was 5.23 min. `COc1ccc(CCN)cc1OC` [DMPEA]: the LC retention time is 3.53 min. In the case of `CN(C)S(=O)(=O)Nc1ccccc1` [DMSA (N N-Dimethylaminosulfanilide)], the LC retention time was 6.28 min. Under `Cc1ccc(NS(=O)(=O)N(C)C)cc1` [DMST (N.N-Dimethyl-N'-p-tolylsulphamide)] stands 7.25 min; under `CN(C)CCc1c[nH]c2ccccc12` [DMT (Dimethyltryptamine)], 3.94 min; under `COc1cc(CC(C)N)c(OC)cc1Br` (stereo unspecified) [DOB], 5.93 min.

With `COc1cc(CC(C)N)c(OC)cc1Cl` (stereo unspecified) [DOC], the LC retention time was 5.67 min. Under `CCc1cc(OC)c(CC(C)N)cc1OC` (stereo unspecified) [DOET] stands 6.88 min; under `COc1cc(CC(C)N)c(OC)cc1C` (stereo unspecified) [DOM (2.5-Dimethoxy-4-methylamphetamine)], 5.83 min; under `CCCN(CCC)CCc1c[nH]c2ccccc12` [DPT], 5.26 min. Regarding `CCCCCCOC(=O)NC(=N)c1ccc(NCc2nc3cc(C(=O)N(CCC(=O)OCC)c4ccccn4)ccc3n2C)cc1` [Dabigatran etexilate], the LC retention time is 9.29 min. Under `O=c1c(-c2ccc(O)cc2)coc2cc(O)ccc12` [Daidzein] stands 6.89 min; under `Cc1ccc(NC(=O)NC(C)(C)c2ccccc2)cc1` [Daimuron (Dymron)], 9.68 min. As for `CN(C)NC(=O)CCC(=O)O` [Daminozide], the figure is 2.18 min. With `CN1CC2CC1CN2c1cc2c(cc1F)c(=O)c(C(=O)O)cn2C1CC1` (stereo unspecified) [Danofloxacin], the LC retention time is 4.54 min. On to `Cc1ccccc1N1CCN(CCc2nnc3n2CCCC3)CC1` [Dapiprazole], for which the LC retention time was 5.66 min. Under `CN(C)C(CCOc1cccc2ccccc12)c1ccccc1` (stereo unspecified) [Dapoxetine] stands 8.34 min. On to `Nc1ccc(S(=O)(=O)c2ccc(N)cc2)cc1` [Dapsone], for which the LC retention time was 4.13 min. In the case of `CC(C)CN(CC(O)C(Cc1ccccc1)NC(=O)OC1COC2OCCC12)S(=O)(=O)c1ccc(N)cc1` (stereo unspecified) [Darunavir], the LC retention time was 8.21 min. Turning to `CN1CSC(=S)N(C)C1` [Dazomet], the LC retention time was 3.97 min. In the case of `N=C(N)N1CCc2ccccc2C1` [Debrisoquine], the LC retention time was 4.39 min. Under `CCCCCCCCCCOc1cc2c(=O)c(C(=O)OCC)c[nH]c2cc1OCC` [Decoquinate] stands 13.4 min; under `CC(=O)OCC(=O)C12N=C(C)OC1CC1C3CCC4=CC(=O)C=CC4(C)C3C(O)CC12C` (stereo unspecified) [Deflazacort], 9.35 min; under `O=C1CN=C(c2ccccc2Cl)c2cc(Cl)ccc2N1` [Delorazepam], 8.81 min.

Regarding `CCS(=O)(=O)CCSP(=O)(OC)OC` [Demeton-S-methylsulfone], the LC retention time is 4.15 min. Under `CCOP(=O)(OCC)SCCSCC.CCOP(=S)(OCC)OCCSCC` [Demeton] stands 8.91 min. `O=C1CN(O)C(c2ccccc2)=c2cc(Cl)ccc2=N1` [Demoxepam]: the LC retention time is 7.14 min. As for `CC[N+](CC)(CC(=O)Nc1c(C)cccc1C)Cc1ccccc1` [Denatonium], the figure is 12.3 min; as for `CCC(CC)COC(C(=O)OCCN(C)C)(c1ccccc1)c1ccccc1` [Denaverine], 11.6 min; as for `C#CCN(C)C(C)Cc1ccccc1` (stereo unspecified) [Deprenyl / Selegiline], 4.68 min.

In the case of `C#CC[N+](C)([O-])C(C)Cc1ccccc1` (stereo unspecified) [Deprenyl-N-oxide], the LC retention time was 5.33 min. Regarding `C#CCNC(C)Cc1ccccc1` (stereo unspecified) [Deprenyl-Nor], the LC retention time was 4.66 min. Under `CCc1cc2c(s1)-n1c(C)nnc1CN=C2c1ccccc1` [Deschloroetizolam] stands 8.43 min; under `Clc1ccc2c(c1)CCc1cccnc1C2=C1CCNCC1` [Desloratadine], 7.48 min. As to `CNc1nc(NC(C)C)nc(SC)n1` [Desmetryn], the LC retention time is 8.17 min. Under `CN1CCC23c4c5ccc(O)c4OC2CCCC3C1C5` (stereo unspecified) [Desomorphine] stands 3.84 min; under `CC1(C)OC2CC3C4CCC5=CC(=O)C=CC5(C)C4C(O)CC3(C)C2(C(=O)CO)O1` (stereo unspecified) [Desonide], 9.04 min. As for `c1ccc(C(c2ccccc2)C2CCCCN2)cc1` (stereo unspecified) [Desoxypipradol], the figure is 6.3 min; as for `Nc1cn[nH]c(=O)c1Cl` [Desphenyl chloridazon], 2.32 min. As for `CCC1C2CC3C4N(C)c5ccccc5C45CC(C2C5O)[N+]3(CC(O)CN(CC)CC)C1O` (stereo unspecified) [Detajmium], the figure is 4.62 min; as for `CC1CC2C3CCC4=CC(=O)C=CC4(C)C3(F)C(O)CC2(C)C1(O)C(=O)CO` (stereo unspecified) [Dexamethasone], 8.38 min. Take `COc1ccc2c(c1)C13CCCCC1C(C2)N(C)CC3` (stereo unspecified) [Dextromethorphan]: the LC retention time was 6.51 min.

Regarding `CCC(=O)OC(Cc1ccccc1)(c1ccccc1)C(C)CN(C)C` (stereo unspecified) [Dextropropoxyphene], the LC retention time was 7.73 min. As for `CC12CCC3C(CC=C4CC(O)CCC43C)C1CCC2=O` (stereo unspecified) [Dhydroepiandrosterone (DHEA) / Androstenolone], the figure is 10.2 min. As for `CC(C)N(CCc1c[nH]c2ccccc12)C(C)C` [DiPT], the figure is 4.87 min; as for `CC(C)c1cc(Oc2ccccc2)cc(C(C)C)c1NC(=S)NC(C)(C)C` [Diafenthiuron], 12.9 min; as for `CCOP(=S)(OCC)SC(CCl)N1C(=O)c2ccccc2C1=O` (stereo unspecified) [Dialifos], 11.5 min. Turning to `CC(C)N(C(=O)SCC(Cl)=CCl)C(C)C` [Diallate], the LC retention time was 11.8 min. In the case of `CC(=O)Nc1c(I)c(NC(C)=O)c(I)c(C(=O)O)c1I` [Diatrizoate (Amidotrizoate acid)], the LC retention time is 2.79 min. Under `O=C1CN=C(c2ccccc2)c2cc(Cl)ccc2N1` [Diazepam-Nor] stands 9.23 min. Under `CN1C(=O)CN=C(c2ccccc2)c2cc(Cl)ccc21` [Diazepam] stands 9.53 min; under `CCOP(=O)(OCC)Oc1cc(C)nc(C(C)C)n1` [Diazinon-O-analog], 8.65 min; under `CCOP(=S)(OCC)Oc1cc(C)nc(C(C)C)n1` [Diazinon], 11 min.

On to `CN(C)CCN1C(=O)c2ccccc2N(C)c2ccccc21` [Dibenzepin], for which the LC retention time was 5.49 min. As for `CCC(C(=O)c1ccc2c(c1)OCO2)N(C)C` (stereo unspecified) [Dibutylone], the figure is 4.38 min; as for `COC(=O)c1c(Cl)ccc(Cl)c1OC` [Dicamba-methyl], 9.64 min; as for `COc1c(Cl)ccc(Cl)c1C(=O)O` [Dicamba], 4.97 min. As for `COP(=S)(OC)Oc1ccc([N+](=O)[O-])cc1Cl` [Dicapthon], the figure is 10.5 min; as for `CCOP(=S)(OCC)Oc1ccc(Cl)cc1Cl` [Dichlofenthion], 12.6 min. Consider `CN(C)S(=O)(=O)N(SC(F)(Cl)Cl)c1ccccc1` [Dichlofluanid], for which the LC retention time was 10 min. Under `C=CCN(CC=C)C(=O)C(Cl)Cl` [Dichlormid] stands 7.18 min; under `NC(=O)c1c(Cl)cccc1Cl` [Dichlorobenzamide], 4.48 min; under `COC(=O)C(C)Oc1ccc(Cl)cc1Cl` (stereo unspecified) [Dichlorprop-methyl], 10.5 min.

`CN1C(=O)CN=C(c2ccccc2Cl)c2cc(Cl)ccc21` [Diclazepam]: the LC retention time was 9.19 min.

Consider `CC(C)(C)C(O)C(Cc1ccc(Cl)cc1Cl)n1cncn1` (stereo unspecified) [Diclobutrazol], for which the LC retention time is 10.7 min. As for `O=C(O)Cc1ccccc1Nc1c(Cl)cccc1Cl` [Diclofenac], the figure is 10.2 min; as for `COC(=O)C(C)Oc1ccc(Oc2ccc(Cl)cc2Cl)cc1` (stereo unspecified) [Diclofop-methyl], 12.3 min.

Consider `Nc1c(Cl)cc([N+](=O)[O-])cc1Cl` [Dicloran], for which the LC retention time is 8.84 min.
